In ChEMBL document CHEMBL5375956, “Discovery of Pyrazolo[1,5-a]pyrimidine Derivative as a Novel and Selective ALKBH5 Inhibitor for the Treatment of AML” (J Med Chem, 2023):
The source made the active and inactive calls. The calls are words filed in the database; no cut-off is given here.

Assays:
MV4-11 [1] = test: Induction of cell cycle arrest at […] phase in human MV4-11 cells at 20 uM incubated for 48 hrs by […]PI staining based flow cytometry; type: functional
MV4-11 [2] = test: Downregulation of TACC3 mRNA level in human MV4-11 cells assessed as half life of expression at 20 umol/L incubated for 24 hrs by qRT-PCR analysis (reference value: 2.63 hrs); type: functional, cell-based; conditions: dose 20.0 µmol/L
RNA demethylase ALKBH5 [3] = biological target: T1, RNA demethylase ALKBH5 (Homo sapiens, UniProt Q6P6C2); test: Inhibition of ALKBH5 in human MOLM-13 cells assessed as increase in m6A mRNA methylation level at 20 uM incubated for 48 hrs by LC-MS/MS analysis; type: cell-based
Target sequence in this assay (Q6P6C2 2-394 limits assumed): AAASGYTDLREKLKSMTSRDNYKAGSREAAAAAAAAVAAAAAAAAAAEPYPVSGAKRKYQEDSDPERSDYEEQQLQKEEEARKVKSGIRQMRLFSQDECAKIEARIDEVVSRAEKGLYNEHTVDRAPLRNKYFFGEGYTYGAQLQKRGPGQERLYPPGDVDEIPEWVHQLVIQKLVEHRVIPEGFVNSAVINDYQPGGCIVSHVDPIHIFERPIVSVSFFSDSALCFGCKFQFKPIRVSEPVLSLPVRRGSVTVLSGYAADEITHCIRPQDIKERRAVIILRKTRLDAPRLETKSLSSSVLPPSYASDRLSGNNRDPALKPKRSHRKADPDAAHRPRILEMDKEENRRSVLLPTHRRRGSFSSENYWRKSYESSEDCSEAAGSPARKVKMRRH

MV4-11 [4] = test: Antitumor activity against human MV4-11 cells xenografted in nude mouse assessed as tumor growth inhibition at 20 mg/kg, ip treated every day for 14 days relative to control; type: functional; conditions: MV4-11, 336 h, time 14 day, read-out: TGI
HUVEC [5] = test: Antiproliferative activity against HUVEC cells assessed as inhibition of cell proliferation incubated for 72 hrs by Cell Titer Luminescence assay; type: functional, cell-based; conditions: Homo sapiens
MV4-11 [6] = test: Antitumor activity against human MV4-11 cells xenografted in nude mouse assessed as tumor growth inhibition at 10 mg/kg, ip treated every day for 14 days relative to control; type: functional; conditions: MV4-11, 336 h, time 14 day, read-out: TGI
HEK293 [7] = test: Effect on c-Myc level in HEK293 cells upto 10 uM incubated for 48 hrs by Western blot analysis; type: functional, cell-based; conditions: Homo sapiens
MOLM-13 [8] = test: Induction of apoptosis in human MOLM-13 cells assessed as early apoptosis cells at 10 uM incubated for 48 hrs by Annexin V-FITC/PI staining based flow cytometry (reference value: 2.72 %); type: functional
[9] = Toxicity in nude mouse xenografted with human MV4-11 cells assessed as heart weight change at 10 to 40 mg/kg, ip treated every day for 14 days; type: organism-based; conditions: in vivo, 336 h, dose 10-40 mg/kg, time 14 day
HUVEC [10] = test: Effect on c-Myc mRNA level in HUVEC cells at 5 to 10 uM incubated for 48 hrs by qRT-PCR analysis; type: functional, cell-based; conditions: Homo sapiens, dose 5-10 µM
MV4-11 [11] = test: Induction of apoptosis in human MV4-11 cells assessed as late apoptosis cells at 10 uM incubated for 48 hrs by Annexin V-FITC/PI staining based flow cytometry (reference value: 7.17 %); type: functional
[12] = Metabolic stability in human liver microsomes assessed as half life measured upto 240 mins by LC-MS/MS analysis; type: ADME, Microsome
HUVEC [13] = test: Effect on TACC3 mRNA level in HUVEC cells at 5 to 10 uM incubated for 48 hrs by qRT-PCR analysis; type: functional, cell-based; conditions: Homo sapiens, dose 5-10 µM
RNA demethylase ALKBH5 [14] = biological target: T1, RNA demethylase ALKBH5; test: Inhibition of ALKBH5 in HEK293 cells assessed as increase in m6A RNA level at 10 to 40 uM by colorimetric assay; type: cell-based; conditions: dose 10-40 µM
Target sequence in this assay (Q6P6C2 2-394 limits assumed): as above

RNA demethylase ALKBH5 [15] = biological target: T1, RNA demethylase ALKBH5; test: Inhibition of ALKBH5 (66 to 292 residues)(unknown origin) expressed in Escherichia coli BL21(DE3) using 5'-ATTGTCA(m6A)CAGCAGA-FAM-3' as substrate incubated for 30 mins in presence of 200 uM of 2-OG by FP based competitive binding assay
Target sequence in this assay (Q6P6C2 whole entry): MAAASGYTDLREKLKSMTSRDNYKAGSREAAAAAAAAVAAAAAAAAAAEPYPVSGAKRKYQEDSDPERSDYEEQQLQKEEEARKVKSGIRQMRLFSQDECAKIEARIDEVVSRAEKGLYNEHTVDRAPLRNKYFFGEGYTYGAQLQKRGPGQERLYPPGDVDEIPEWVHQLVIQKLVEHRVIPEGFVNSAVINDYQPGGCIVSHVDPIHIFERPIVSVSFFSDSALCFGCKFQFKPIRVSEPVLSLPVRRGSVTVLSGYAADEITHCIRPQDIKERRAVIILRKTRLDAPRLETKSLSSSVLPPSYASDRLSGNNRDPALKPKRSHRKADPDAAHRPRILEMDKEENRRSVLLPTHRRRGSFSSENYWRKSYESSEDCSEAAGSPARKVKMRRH

MOLM-13 [16] = test: Downregulation of c-Myc mRNA level in human MOLM-13 cells at 5 to 10 uM incubated for 48 hrs by qRT-PCR analysis; type: functional, cell-based; conditions: dose 5-10 µM
MV4-11 [17] = test: Induction of apoptosis in human MV4-11 cells assessed as necrotic cells at 10 uM incubated for 48 hrs by Annexin V-FITC/PI staining based flow cytometry (reference value: 1.81 %); type: functional
[18] = Toxicity in nude mouse xenografted with human MV4-11 cells assessed as heart damage at 10 to 40 mg/kg, ip treated every day for 14 days by H and E staining based analysis; type: organism-based; conditions: in vivo, 336 h, dose 10-40 mg/kg, time 14 day
HEK293 [19] = test: Effect on TACC3 level in HEK293 cells upto 10 uM incubated for 48 hrs by Western blot analysis; type: functional, cell-based; conditions: Homo sapiens
[20] = Toxicity in nude mouse xenografted with human MV4-11 cells assessed as liver weight change at 10 to 40 mg/kg, ip treated every day for 14 days; type: organism-based; conditions: in vivo, 336 h, dose 10-40 mg/kg, time 14 day
RNA demethylase ALKBH5 [21] = biological target: T1, RNA demethylase ALKBH5; test: Inhibition of ALKBH5 in human MOLM-13 cells assessed as increase in m6A RNA level by colorimetric assay; type: cell-based; conditions: dose 10-20 µM
Target sequence in this assay (Q6P6C2 2-394 limits assumed): as the sequence (Q6P6C2 2-394 limits assumed) above

[22] = MRT in Sprague-Dawley rat at 2 mg/kg, iv measured for 1 to 1440 mins by LC-MS/MS analysis; type: ADME, organism-based; conditions: in vivo, time 1-1440 min
HEK293 [23] = test: Antiproliferative activity against HEK293 cells assessed as inhibition of cell proliferation incubated for 72 hrs by Cell Titer Luminescence assay; type: functional, cell-based; conditions: Homo sapiens, HEK293, 72 h
MOLM-13 [24] = test: Induction of cell cycle arrest at […] phase in human MOLM-13 cells at 20 uM incubated for 48 hrs by […]PI staining based flow cytometry; type: functional
[25] = Toxicity in nude mouse xenografted with human MV4-11 cells assessed as kidney weight change at 10 to 40 mg/kg, ip treated every day for 14 days; type: organism-based; conditions: in vivo, 336 h, dose 10-40 mg/kg, time 14 day
[26] = Apparent oral clearance in Sprague-Dawley rat at 2 mg/kg, iv measured for 1 to 1440 mins by LC-MS/MS analysis; type: ADME, organism-based; conditions: in vivo, time 1-1440 min
MOLM-13 [27] = test: Downregulation of c-Myc level in human MOLM-13 cells upto 10 uM incubated for 48 hrs by Western blot analysis; type: functional, cell-based
RNA demethylase ALKBH5 [28] = biological target: T1, RNA demethylase ALKBH5; test: Binding affinity to biotinylated ALKBH5 (66 to 292 residues)(unknown origin) expressed in Escherichia coli BL21(DE3) assessed as equilibrium dissociation constant by BLI assay
Target sequence in this assay (Q6P6C2 whole entry): as the sequence (Q6P6C2 whole entry) above

MV4-11 [29] = test: Induction of apoptosis in human MV4-11 cells assessed as early apoptosis cells at 10 uM incubated for 48 hrs by Annexin V-FITC/PI staining based flow cytometry (reference value: 1.24 %); type: functional
[30] = biological target: Alpha-ketoglutarate-dependent dioxygenase FTO (Homo sapiens, UniProt Q9C0B1); test: Inhibition of FTO (32 to 505 residues)(unknown origin) expressed in Escherichia coli BL21(DE3) using 5'-TAGACATTGCCATTCTCGATAGG(m6A)-TCCGGTCAAACCTAGACGAATTCCA-3' as substrate at 100 uM incubated for 2 hrs by restriction endonuclease digestion assay
Alpha-ketoglutarate-dependent dioxygenase FTO, sequence (Q9C0B1 whole entry, looked up, the tested form may be a part): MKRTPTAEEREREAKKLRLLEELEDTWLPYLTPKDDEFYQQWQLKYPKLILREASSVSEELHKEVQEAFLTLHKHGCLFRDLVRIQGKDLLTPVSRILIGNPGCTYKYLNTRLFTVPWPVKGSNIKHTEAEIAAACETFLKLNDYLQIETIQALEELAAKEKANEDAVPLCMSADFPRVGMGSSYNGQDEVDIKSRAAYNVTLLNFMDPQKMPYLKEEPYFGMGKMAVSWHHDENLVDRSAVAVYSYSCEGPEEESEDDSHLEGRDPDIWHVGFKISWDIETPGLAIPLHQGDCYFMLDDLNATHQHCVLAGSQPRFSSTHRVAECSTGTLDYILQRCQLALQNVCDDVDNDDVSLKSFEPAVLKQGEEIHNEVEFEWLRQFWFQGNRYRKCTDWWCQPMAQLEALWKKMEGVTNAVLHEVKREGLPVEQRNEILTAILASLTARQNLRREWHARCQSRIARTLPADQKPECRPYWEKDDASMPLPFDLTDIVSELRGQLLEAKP

[31] = AUC (0 to infinity) in Sprague-Dawley rat at 2 mg/kg, iv measured for 1 to 1440 mins by LC-MS/MS analysis; type: ADME, organism-based; conditions: in vivo
HUVEC [32] = test: Effect on c-Myc level in HUVEC cells upto 10 uM incubated for 48 hrs by Western blot analysis; type: functional, cell-based; conditions: Homo sapiens
[33] = Toxicity in nude mouse xenografted with human MV4-11 cells assessed as lung weight change at 10 to 40 mg/kg, ip treated every day for 14 days; type: organism-based; conditions: in vivo, 336 h, dose 10-40 mg/kg, time 14 day
MOLM-13 [34] = test: Downregulation of TACC3 mRNA level in human MOLM-13 cells assessed as half life of expression at 20 umol/L incubated for 24 hrs by qRT-PCR analysis (reference value: 2.87 hrs); type: functional, cell-based; conditions: dose 20.0 µmol/L

inhibition (RNA demethylase ALKBH5 [3]): Active
half-life [12]: 7.17 h
inhibition (RNA demethylase ALKBH5 [14]): Active
IC50 (RNA demethylase ALKBH5 [15]): 4.46 µM
inhibition (RNA demethylase ALKBH5 [21]): Dose-Dependent Effect
MRT [22]: 1.3 h
CL/F [26]: 5 mL/min/kg
Kd (RNA demethylase ALKBH5 [28]): 6.62 µM
inhibition [30]: inactive
AUC(0-inf) [31]: 6740 ng·h/mL
Structure (SMILES): O=C(OCc1ccc(C(F)(F)F)cc1)c1ccc(-c2cc3ncc(C(=O)c4c(O)ccc([N+](=O)[O-])c4O)cn3n2)cc1
Activity (MV4-11 [1]): Active
T1/2 (MV4-11 [2]): 1.96 h
inhibition in vivo at 20 mg/kg (MV4-11 [4]): 68.9%
IC50 (HUVEC [5]): 165 µM
inhibition in vivo at 10 mg/kg (MV4-11 [6]): 56.3%
Activity (HEK293 [7]): inactive
Activity (MOLM-13 [8]): 2.88%
Activity [9]: Non-Toxic
Activity (HUVEC [10]): inactive
Activity (MV4-11 [11]): 55.4%
Activity (HUVEC [13]): inactive
Activity (MOLM-13 [16]): Active
Activity (MV4-11 [17]): 2.15%
Activity [18]: Non-Toxic
Activity (HEK293 [19]): inactive
Activity [20]: Non-Toxic
IC50 (HEK293 [23]): 97.4 µM
Activity (MOLM-13 [24]): Active
Activity [25]: Non-Toxic
Activity (MOLM-13 [27]): Active
Activity (MV4-11 [29]): 2.59%
Activity (HUVEC [32]): inactive
Activity [33]: Non-Toxic
T1/2 (MOLM-13 [34]): 2.06 h
